Read-outs that look alike come from different tables or passages of the source.
Target: T1, F508delCFTR (Homo sapiens, UniProt P13569, DEL508-508)
T1 construct: expressed in transfected cells; host or cells: CFBE41o- (human lung derived epithelial cell line), doxycycline-inducible expression
Test: Cell Surface Expression-Horse Radish Peroxidase (CSE-HRP) assay
Type: cell-based
Settings: CFBE41o-F508delCFTR-HRP cells; for Maximum % activity (with co-corrector): with co-corrector (2 μM); for Maximum % activity (with co-corrector) / Maximum % activity (without co-corrector): normalized to on-plate positive control, highest concentration 20 μM
Procedure, shortened: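 Surface F508delCFTR-HRP was read by luminol luminescence after 18–24 h compound exposure at 33 °C, without or with 2 μM co-corrector. Doses were eight 3-fold steps from 20 μM, in doxycycline-induced (0.5 μg/mL, 72 h) CFBE41o- cells. % activity was scaled to the on-plate 2 μM positive control minus DMSO; EC50 came from a variable-slope sigmoid fit.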

[1] = test compound without co-corrector, 18-24 hours at 33° C., read-out: EC50 (without co-corrector)
[2] = with co-corrector (2 μM of 3-[(2R,4R)-4-({[1-(2,2-difluoro-1,3-benzodioxol-5-yl)cyclopropyl]carbonyl}amino)-7-methoxy-3,4-dihydro-2H-chromen-2-yl]benzoic acid), read-out: EC50 (with co-corrector)

T1 sequence (P13569 with tags, fused parts or gaps DEL508-508): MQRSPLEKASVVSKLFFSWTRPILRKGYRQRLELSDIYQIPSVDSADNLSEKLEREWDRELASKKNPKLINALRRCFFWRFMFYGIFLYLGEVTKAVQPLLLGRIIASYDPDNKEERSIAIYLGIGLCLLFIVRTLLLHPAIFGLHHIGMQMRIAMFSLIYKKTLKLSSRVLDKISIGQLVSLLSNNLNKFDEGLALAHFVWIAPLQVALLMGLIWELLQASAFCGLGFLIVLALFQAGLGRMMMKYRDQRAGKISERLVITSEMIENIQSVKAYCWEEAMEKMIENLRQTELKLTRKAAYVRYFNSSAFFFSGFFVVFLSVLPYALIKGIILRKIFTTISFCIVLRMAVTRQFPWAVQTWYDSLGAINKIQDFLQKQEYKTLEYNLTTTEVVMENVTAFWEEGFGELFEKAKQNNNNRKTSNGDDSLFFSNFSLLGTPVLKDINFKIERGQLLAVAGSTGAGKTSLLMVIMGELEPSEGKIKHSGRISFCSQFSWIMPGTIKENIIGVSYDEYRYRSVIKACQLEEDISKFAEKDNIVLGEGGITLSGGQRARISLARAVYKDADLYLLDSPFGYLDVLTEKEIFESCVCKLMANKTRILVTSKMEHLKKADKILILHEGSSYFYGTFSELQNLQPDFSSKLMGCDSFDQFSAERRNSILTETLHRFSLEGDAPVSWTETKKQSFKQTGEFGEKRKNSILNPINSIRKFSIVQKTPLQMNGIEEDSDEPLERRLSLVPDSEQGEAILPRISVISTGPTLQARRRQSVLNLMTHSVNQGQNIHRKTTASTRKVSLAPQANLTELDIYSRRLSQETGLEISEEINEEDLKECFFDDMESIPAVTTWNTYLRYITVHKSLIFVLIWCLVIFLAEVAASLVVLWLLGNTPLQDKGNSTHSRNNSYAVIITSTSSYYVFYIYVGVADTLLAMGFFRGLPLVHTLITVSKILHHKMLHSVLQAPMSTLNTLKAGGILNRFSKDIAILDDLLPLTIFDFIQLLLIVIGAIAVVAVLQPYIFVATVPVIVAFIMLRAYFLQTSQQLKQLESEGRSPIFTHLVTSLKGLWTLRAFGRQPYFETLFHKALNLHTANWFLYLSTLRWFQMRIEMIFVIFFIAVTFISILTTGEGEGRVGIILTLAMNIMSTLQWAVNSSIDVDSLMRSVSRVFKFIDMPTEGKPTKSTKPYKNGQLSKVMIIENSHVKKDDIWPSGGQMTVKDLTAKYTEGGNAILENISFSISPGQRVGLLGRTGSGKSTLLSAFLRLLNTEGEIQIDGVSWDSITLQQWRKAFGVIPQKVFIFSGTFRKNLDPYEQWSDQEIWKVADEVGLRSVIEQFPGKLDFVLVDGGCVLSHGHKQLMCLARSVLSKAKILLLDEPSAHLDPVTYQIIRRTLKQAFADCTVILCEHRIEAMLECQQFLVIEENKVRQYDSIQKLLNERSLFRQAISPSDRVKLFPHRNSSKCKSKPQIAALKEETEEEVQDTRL

Row | SMILES | EC50 [1] | EC50 [2] | Maximum % activity (with co-corrector) | Maximum % activity (without co-corrector)
1 | COc1ncc(C(F)(F)F)cc1CO[C@H]1[C@H](C(C)(C)C)[C@@H](C(=O)O)N(C(=O)C2CCOCC2)[C@H]1c1ccccc1C(C)C [Example 110, (2S,3R,4S,5S)-3-tert-butyl-4-{[2-methoxy-5-(trifluoromethyl)pyridin-3-yl]methoxy}-1-(oxane-4-carbonyl)-5-[2-(propan-2-yl)phenyl]pyrrolidine-2-carboxylic acid] | 1000 to 10000 nM | 1000 to 10000 nM | +++ (≥350) | ++ (≥100 and <200)
2 | COc1ncc(C(F)(F)F)cc1CO[C@H]1[C@H](C(C)(C)C)[C@@H](C(=O)O)N(C(=O)[C@@H]2CCOC2)[C@H]1c1ccccc1C(C)C [Example 111, (2S,3R,4S,5S)-3-tert-butyl-4-{[2-methoxy-5-(trifluoromethyl)pyridin-3-yl]methoxy}-1-[(3R)-oxolane-3-carbonyl]-5-[2-(propan-2-yl)phenyl]pyrrolidine-2-carboxylic acid] | 1000 to 10000 nM | 1000 to 10000 nM | +++ (≥350) | ++ (≥100 and <200)
3 | COc1ncc(C(F)(F)F)cc1CO[C@H]1[C@H](C(C)(C)C)[C@@H](C(=O)O)N(C(=O)[C@@H]2CCCO2)[C@H]1c1ccccc1C1CC1 [Example 112, (2S,3R,4S,5S)-3-tert-butyl-5-(2-cyclopropylphenyl)-4-{[2-methoxy-5-(trifluoromethyl)pyridin-3-yl]methoxy}-1-[(2S)-oxolane-2-carbonyl]pyrrolidine-2-carboxylic acid] | 1000 to 10000 nM | < 1000 nM | +++ (≥350) | ++ (≥100 and <200)
4 | COc1ccc(C(F)(F)F)cc1CO[C@H]1[C@H](C(C)(C)C)[C@@H](C(=O)O)N(C(=O)[C@@H]2CCCO2)[C@H]1c1cccnc1C(F)(F)F [Example 113, (2S,3R,4S,5S)-3-tert-butyl-4-{[2-methoxy-5-(trifluoromethyl)phenyl]methoxy}-1-[(2S)-oxolane-2-carbonyl]-5-[2-(trifluoromethyl)pyridin-3-yl]pyrrolidine-2-carboxylic acid] | 1000 to 10000 nM | 1000 to 10000 nM | ++ (≥150 and <350) | + (<100)
5 | COc1ccc(C(F)(F)F)cc1CO[C@@H]1[C@H](C(C)(C)C)[C@@H](C(=O)O)N(C(=O)[C@@H]2CCCO2)[C@H]1c1cccnc1C(F)(F)F [Example 114, (2S,3R,4R,5S)-3-tert-butyl-4-{[2-methoxy-5-(trifluoromethyl)phenyl]methoxy}-1-[(2S)-oxolane-2-carbonyl]-5-[2-(trifluoromethyl)pyridin-3-yl]pyrrolidine-2-carboxylic acid] | > 10000 nM | > 10000 nM | + (<150) | + (<100)
6 | COc1ncc(C(F)(F)F)cc1CO[C@H]1[C@H](C(C)(C)C)[C@@H](C(=O)O)N(C(=O)[C@@H]2CCCO2)[C@H]1c1ccccc1Cl [Example 115, (2S,3R,4S,5S)-3-tert-butyl-5-(2-chlorophenyl)-4-{[2-methoxy-5-(trifluoromethyl)pyridin-3-yl]methoxy}-1-[(2S)-oxolane-2-carbonyl]pyrrolidine-2-carboxylic acid] | 1000 to 10000 nM | < 1000 nM | +++ (≥350) | ++ (≥100 and <200)
7 | COc1nc2ccccc2cc1CO[C@H]1[C@H](C(C)(C)C)[C@@H](C(=O)O)N(C(=O)[C@@H]2CCCO2)[C@H]1c1ccccc1C(C)C [Example 116, (2S,3R,4S,5S)-3-tert-butyl-4-[(2-methoxyquinolin-3-yl)methoxy]-1-[(2S)-oxolane-2-carbonyl]-5-[2-(propan-2-yl)phenyl]pyrrolidine-2-carboxylic acid] | 1000 to 10000 nM | 1000 to 10000 nM | +++ (≥350) | ++ (≥100 and <200)
8 | COc1ncc(C(F)(F)F)cc1CO[C@H]1[C@H](C(C)(C)C)[C@@H](C(=O)O)N(C(=O)[C@@H]2CCCO2)[C@H]1c1cccc(C(C)C)c1 [Example 117, (2S,3R,4S,5S)-3-tert-butyl-4-{[2-methoxy-5-(trifluoromethyl)pyridin-3-yl]methoxy}-1-[(2S)-oxolane-2-carbonyl]-5-[3-(propan-2-yl)phenyl]pyrrolidine-2-carboxylic acid] | < 1000 nM | < 1000 nM | ++ (≥150 and <350) | + (<100)
9 | COc1ncc(C(F)(F)F)cc1CO[C@H]1[C@H](C(C)(C)C)[C@@H](C(=O)O)N(C(=O)[C@@H]2CCCO2)[C@H]1c1cccc(Br)c1 [Example 118, (2S,3R,4S,5S)-5-(3-bromophenyl)-3-tert-butyl-4-{[2-methoxy-5-(trifluoromethyl)pyridin-3-yl]methoxy}-1-[(2S)-oxolane-2-carbonyl]pyrrolidine-2-carboxylic acid] | 1000 to 10000 nM | < 1000 nM | +++ (≥350) | ++ (≥100 and <200)
10 | COc1ncc(C(F)(F)F)cc1CO[C@H]1[C@H](C(C)(C)C)[C@@H](C(=O)O)N(C(=O)[C@@H]2CCCO2)[C@H]1c1cccc(Cl)c1 [Example 119, (2S,3R,4S,5S)-3-tert-butyl-5-(3-chlorophenyl)-4-{[2-methoxy-5-(trifluoromethyl)pyridin-3-yl]methoxy}-1-[(2S)-oxolane-2-carbonyl]pyrrolidine-2-carboxylic acid] | 1000 to 10000 nM | 1000 to 10000 nM | +++ (≥350) | ++ (≥100 and <200)
11 | COc1ncc(C(F)(F)F)cc1CO[C@H]1[C@H](C(C)(C)C)[C@@H](C(=O)O)N(C(=O)[C@@H]2CCCO2)[C@H]1c1cccc(C2CC2)c1 [Example 120, (2S,3R,4S,5S)-3-tert-butyl-5-(3-cyclopropylphenyl)-4-{[2-methoxy-5-(trifluoromethyl)pyridin-3-yl]methoxy}-1-[(2S)-oxolane-2-carbonyl]pyrrolidine-2-carboxylic acid] | 1000 to 10000 nM | < 1000 nM | ++ (≥150 and <350) | + (<100)
12 | COc1ncc(C(F)(F)F)cc1CO[C@H]1[C@H](C(C)(C)C)[C@@H](C(=O)O)N(C(=O)[C@@H]2CCCO2)[C@H]1c1cccc(C(C)(C)C)c1 [Example 121, (2S,3R,4S,5S)-3-tert-butyl-5-(3-tert-butylphenyl)-4-{[2-methoxy-5-(trifluoromethyl)pyridin-3-yl]methoxy}-1-[(2S)-oxolane-2-carbonyl]pyrrolidine-2-carboxylic acid] | < 1000 nM | < 1000 nM | ++ (≥150 and <350) | + (<100)
13 | COc1ncc(C(F)(F)F)cc1CO[C@@H]1[C@H](C(C)(C)C)[C@@H](C(=O)O)N(C(=O)[C@@H]2CCCO2)[C@H]1c1cccc(C(C)(C)C)c1 [Example 122, (2S,3R,4R,5S)-3-tert-butyl-5-(3-tert-butylphenyl)-4-{[2-methoxy-5-(trifluoromethyl)pyridin-3-yl]methoxy}-1-[(2S)-oxolane-2-carbonyl]pyrrolidine-2-carboxylic acid] | > 10000 nM | > 10000 nM | + (<150) | + (<100)
14 | COc1ncc(C(F)(F)F)cc1CO[C@H]1[C@H](C(C)(C)C)[C@@H](C(=O)O)N(C(=O)[C@@H]2CCCCO2)[C@H]1c1cccc(Cl)c1 [Example 123, (2S,3R,4S,5S)-3-tert-butyl-5-(3-chlorophenyl)-4-{[2-methoxy-5-(trifluoromethyl)pyridin-3-yl]methoxy}-1-[(2S)-oxane-2-carbonyl]pyrrolidine-2-carboxylic acid] | 1000 to 10000 nM | < 1000 nM | +++ (≥350) | ++ (≥100 and <200)
15 | COc1ncc(C(F)(F)F)cc1CO[C@H]1[C@H](C(C)(C)C)[C@@H](C(=O)O)N(C(=O)OC(C)C)[C@H]1c1cccc(Br)c1 [Example 124, (2S,3R,4S,5S)-5-(3-bromophenyl)-3-tert-butyl-4-{[2-methoxy-5-(trifluoromethyl)pyridin-3-yl]methoxy}-1-{[(propan-2-yl)oxy]carbonyl}pyrrolidine-2-carboxylic acid] | 1000 to 10000 nM | < 1000 nM | ++ (≥150 and <350) | + (<100)
16 | COc1ncc(C(F)(F)F)cc1CO[C@H]1[C@H](C(C)(C)C)[C@@H](C(=O)O)N(C(=O)[C@H]2CCCCO2)[C@H]1c1cccc(Cl)c1 [Example 125, (2S,3R,4S,5S)-3-tert-butyl-5-(3-chlorophenyl)-4-{[2-methoxy-5-(trifluoromethyl)pyridin-3-yl]methoxy}-1-[(2R)-oxane-2-carbonyl]pyrrolidine-2-carboxylic acid] | < 1000 nM | < 1000 nM | ++ (≥150 and <350) | + (<100)

— US10399940B2, “Substituted pyrrolidines and methods of use” (AbbVie S.à.r.l., priority 2016, dated 2019)
